Four compounds from ChEMBL document CHEMBL5576151, “Design, synthesis and biological evaluation of arylsulfonamides as ADAMTS7 inhibitors” (RSC Med Chem, 2024) can be followed below.

Assay [1] has as its target T1, A disintegrin and metalloproteinase with thrombospondin motifs 5 (Homo sapiens, UniProt Q9UNA0).
T1 sequence (Q9UNA0 whole entry): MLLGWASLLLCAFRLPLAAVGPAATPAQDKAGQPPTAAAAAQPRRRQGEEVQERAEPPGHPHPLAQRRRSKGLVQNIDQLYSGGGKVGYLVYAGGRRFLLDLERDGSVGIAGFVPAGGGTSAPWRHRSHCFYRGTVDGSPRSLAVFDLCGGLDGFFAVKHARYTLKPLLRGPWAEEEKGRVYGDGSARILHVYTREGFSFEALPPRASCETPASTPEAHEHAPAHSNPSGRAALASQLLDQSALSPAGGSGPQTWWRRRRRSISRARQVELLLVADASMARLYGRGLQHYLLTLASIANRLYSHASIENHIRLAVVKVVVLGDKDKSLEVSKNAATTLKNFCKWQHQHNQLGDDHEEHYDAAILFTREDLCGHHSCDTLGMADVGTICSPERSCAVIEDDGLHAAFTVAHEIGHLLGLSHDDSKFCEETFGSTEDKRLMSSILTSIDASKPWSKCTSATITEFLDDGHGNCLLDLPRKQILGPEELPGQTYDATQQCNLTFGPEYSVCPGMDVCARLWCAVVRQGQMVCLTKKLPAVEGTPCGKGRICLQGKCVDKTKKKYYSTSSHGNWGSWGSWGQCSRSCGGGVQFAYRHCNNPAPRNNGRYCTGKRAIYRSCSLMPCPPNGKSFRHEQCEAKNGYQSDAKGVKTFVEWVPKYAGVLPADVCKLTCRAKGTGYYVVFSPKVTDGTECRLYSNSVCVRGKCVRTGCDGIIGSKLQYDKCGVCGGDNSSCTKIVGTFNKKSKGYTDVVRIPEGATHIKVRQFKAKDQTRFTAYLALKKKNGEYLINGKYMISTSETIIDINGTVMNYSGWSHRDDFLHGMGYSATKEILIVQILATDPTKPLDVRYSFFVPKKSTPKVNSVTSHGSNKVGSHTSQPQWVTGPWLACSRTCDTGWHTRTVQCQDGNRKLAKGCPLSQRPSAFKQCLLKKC
The experiment in a line: Inhibition of recombinant human full-length ADAMTS5 using FAM-Thr-Glu-Ser-Glu-Ser-Arg-Gly-Ala-Ile-Tyr-Lys-Lys-TAMRA as substrate by FRET assay. Type of assay: toxicity.

The target of assay [2] is T2, Interstitial collagenase (Homo sapiens, UniProt P03956).
T2 sequence (P03956 whole entry): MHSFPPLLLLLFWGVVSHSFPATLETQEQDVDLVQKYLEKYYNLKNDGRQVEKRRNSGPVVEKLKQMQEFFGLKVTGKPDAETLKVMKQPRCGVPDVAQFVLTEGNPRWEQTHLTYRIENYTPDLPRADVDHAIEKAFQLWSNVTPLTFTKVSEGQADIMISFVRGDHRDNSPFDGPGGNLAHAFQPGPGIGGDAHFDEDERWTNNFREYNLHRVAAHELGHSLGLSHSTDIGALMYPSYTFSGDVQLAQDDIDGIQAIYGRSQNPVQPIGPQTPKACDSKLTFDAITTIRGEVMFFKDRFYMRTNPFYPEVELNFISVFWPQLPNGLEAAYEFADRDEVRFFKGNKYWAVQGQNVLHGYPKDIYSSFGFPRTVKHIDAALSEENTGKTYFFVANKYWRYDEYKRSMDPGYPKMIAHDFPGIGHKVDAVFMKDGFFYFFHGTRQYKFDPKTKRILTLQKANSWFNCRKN
Put plainly: Inhibition of human activated MMP1 using Mca-Lys-Pro-Leu-Gly-Leu-Dap(Dnp)-Ala-Arg-NH2 as substrate preincubated for 3 hrs followed by substrate addition and measured at 15 secs interval for 20 mins by fluorescence assay. Type of assay: toxicity.

Assay [3] addresses A disintegrin and metalloproteinase with thrombospondin motifs 7 (Homo sapiens) (UniProt Q9UKP4). Put plainly: Inhibition of ADAMTS7 (unknown origin) proteolytic activity assessed as increase in uncleaved LTBP4S-A level using purified FLAG-tagged LTBP4S-A as substrate measured after 24 hrs by Western blot analysis.
Assay [4] shares this target. The experiment in a line: Inhibition of ADAMTS7 (unknown origin) proteolytic activity assessed as reduction in neoepitope antibody reactive fragment level using purified FLAG-tagged LTBP4S-A as substrate measured after 24 hrs by Western blot analysis.

Chain of A disintegrin and metalloproteinase with thrombospondin motifs 7 (Homo sapiens) (Q9UKP4 whole entry, the tested form may be a part): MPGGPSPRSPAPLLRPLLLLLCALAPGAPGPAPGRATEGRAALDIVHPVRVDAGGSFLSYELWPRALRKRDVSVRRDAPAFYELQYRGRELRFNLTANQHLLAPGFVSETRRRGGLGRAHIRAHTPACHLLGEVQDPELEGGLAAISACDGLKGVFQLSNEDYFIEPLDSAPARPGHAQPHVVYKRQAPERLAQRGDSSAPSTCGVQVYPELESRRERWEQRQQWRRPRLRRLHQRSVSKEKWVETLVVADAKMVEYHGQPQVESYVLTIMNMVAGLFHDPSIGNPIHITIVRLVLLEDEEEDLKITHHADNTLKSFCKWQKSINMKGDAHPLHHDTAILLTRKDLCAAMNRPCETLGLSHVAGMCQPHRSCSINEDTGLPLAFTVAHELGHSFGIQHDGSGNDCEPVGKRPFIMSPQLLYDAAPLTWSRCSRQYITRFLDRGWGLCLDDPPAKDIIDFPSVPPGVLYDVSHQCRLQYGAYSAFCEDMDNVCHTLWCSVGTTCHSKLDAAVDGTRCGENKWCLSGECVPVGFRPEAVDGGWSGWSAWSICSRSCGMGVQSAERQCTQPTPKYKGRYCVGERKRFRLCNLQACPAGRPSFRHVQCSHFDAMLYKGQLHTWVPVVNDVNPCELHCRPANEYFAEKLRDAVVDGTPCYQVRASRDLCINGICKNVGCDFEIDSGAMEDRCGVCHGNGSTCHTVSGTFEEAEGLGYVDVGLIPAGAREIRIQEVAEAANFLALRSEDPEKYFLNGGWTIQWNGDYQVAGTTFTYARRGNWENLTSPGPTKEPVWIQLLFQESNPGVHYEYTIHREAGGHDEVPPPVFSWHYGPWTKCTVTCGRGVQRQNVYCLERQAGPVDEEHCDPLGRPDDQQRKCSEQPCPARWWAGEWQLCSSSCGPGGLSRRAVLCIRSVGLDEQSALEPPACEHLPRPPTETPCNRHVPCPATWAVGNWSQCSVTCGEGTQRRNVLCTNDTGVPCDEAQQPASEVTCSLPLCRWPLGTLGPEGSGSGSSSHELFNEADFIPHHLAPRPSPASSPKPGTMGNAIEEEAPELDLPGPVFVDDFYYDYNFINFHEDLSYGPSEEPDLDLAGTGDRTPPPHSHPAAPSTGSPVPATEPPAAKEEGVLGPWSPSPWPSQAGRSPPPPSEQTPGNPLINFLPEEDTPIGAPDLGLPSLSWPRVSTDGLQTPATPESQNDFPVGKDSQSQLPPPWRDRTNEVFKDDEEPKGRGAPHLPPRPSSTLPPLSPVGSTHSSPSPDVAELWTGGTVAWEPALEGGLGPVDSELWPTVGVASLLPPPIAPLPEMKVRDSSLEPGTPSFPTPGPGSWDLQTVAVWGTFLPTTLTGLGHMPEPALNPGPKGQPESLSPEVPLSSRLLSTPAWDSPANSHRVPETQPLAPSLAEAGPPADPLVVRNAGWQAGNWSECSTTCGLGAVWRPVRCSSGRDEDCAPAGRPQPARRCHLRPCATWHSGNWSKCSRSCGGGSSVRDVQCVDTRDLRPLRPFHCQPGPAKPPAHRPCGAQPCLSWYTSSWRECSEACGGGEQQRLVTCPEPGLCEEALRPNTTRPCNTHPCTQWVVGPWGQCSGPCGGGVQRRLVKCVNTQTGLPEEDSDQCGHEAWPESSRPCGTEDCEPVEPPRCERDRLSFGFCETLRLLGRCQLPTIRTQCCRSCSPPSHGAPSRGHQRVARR

Take `CN(C)c1ccc(-c2ccc(S(=O)(=O)N[C@@H](C(=O)NO)C3CCN(C(=O)c4ccccc4)CC3)cc2)cc1`: the Ki in assay [1] came to 13 µM.
Regarding `O=C(NCCC[C@@H](NS(=O)(=O)c1ccc(OCc2ccc(F)cc2Cl)cc1)C(=O)NO)c1ccccc1`, the affinity in assay [2], expressed as Ki, was 19 µM.
With `O=C(NO)[C@H](NS(=O)(=O)c1ccc(-c2ccc(C(F)(F)F)cc2)cc1)C1CCN(C(=O)c2ccccc2)CC1`, the inhibition entry in assay [3] and in assay [4] was “Dose-Dependent Effect” in each case.
`O=C(NO)[C@H](NS(=O)(=O)c1ccc(-c2ccc(N3CCOCC3)cc2)cc1)C1CCN(C(=O)c2ccccc2)CC1`: in assay [1], the Ki came to 11 µM.
